Legend:
HiBit-BRG1 = biological target: T1, HiBit-BRG1 (Homo sapiens, UniProt P51532); test: HiBit-BRG1 cell-based degradation assay (Nano-Glo HiBiT Lytic Detection); conditions: HeLa cells expressing HiBit-BRG1 and LgBit, 24 h; for DC50: read-out: BRG1 HiBit Degradation IC50; for Dmax: read-out: BRG1 HiBit Degradation Maximum (%)
T1 construct: expressed in transfected cells
Procedure, shortened: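 Seed 5000 HeLa HiBit-BRG1/LgBit cells per well; treat 24 h; equilibrate 15 min at room temperature; add Nano-Glo HiBiT lytic reagent, shake 10 min, read luminescence. Percent degradation is scaled between DMSO and 2 μM reference degrader wells.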

HiBiT-BRM = biological target: T2, HiBiT-BRM (Homo sapiens, UniProt P51531); test: HiBiT-BRM cell-based degradation assay (Nano-Glo HiBiT Lytic Detection); conditions: HeLa cells expressing HiBiT-BRM, 24 h; for DC50: read-out: BRM HiBit Degradation IC50
T2 construct: expressed in transfected cells
Procedure, shortened: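 Luminescence from HiBiT–LgBiT complementation in lysates of a stable HiBiT-BRM HeLa line measured after 24 h compound exposure. Degradation expressed as percent relative to DMSO-treated cells and cells given 2 μM of a known BRM/BRG1 degrader.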

T1 sequence (P51532 whole entry): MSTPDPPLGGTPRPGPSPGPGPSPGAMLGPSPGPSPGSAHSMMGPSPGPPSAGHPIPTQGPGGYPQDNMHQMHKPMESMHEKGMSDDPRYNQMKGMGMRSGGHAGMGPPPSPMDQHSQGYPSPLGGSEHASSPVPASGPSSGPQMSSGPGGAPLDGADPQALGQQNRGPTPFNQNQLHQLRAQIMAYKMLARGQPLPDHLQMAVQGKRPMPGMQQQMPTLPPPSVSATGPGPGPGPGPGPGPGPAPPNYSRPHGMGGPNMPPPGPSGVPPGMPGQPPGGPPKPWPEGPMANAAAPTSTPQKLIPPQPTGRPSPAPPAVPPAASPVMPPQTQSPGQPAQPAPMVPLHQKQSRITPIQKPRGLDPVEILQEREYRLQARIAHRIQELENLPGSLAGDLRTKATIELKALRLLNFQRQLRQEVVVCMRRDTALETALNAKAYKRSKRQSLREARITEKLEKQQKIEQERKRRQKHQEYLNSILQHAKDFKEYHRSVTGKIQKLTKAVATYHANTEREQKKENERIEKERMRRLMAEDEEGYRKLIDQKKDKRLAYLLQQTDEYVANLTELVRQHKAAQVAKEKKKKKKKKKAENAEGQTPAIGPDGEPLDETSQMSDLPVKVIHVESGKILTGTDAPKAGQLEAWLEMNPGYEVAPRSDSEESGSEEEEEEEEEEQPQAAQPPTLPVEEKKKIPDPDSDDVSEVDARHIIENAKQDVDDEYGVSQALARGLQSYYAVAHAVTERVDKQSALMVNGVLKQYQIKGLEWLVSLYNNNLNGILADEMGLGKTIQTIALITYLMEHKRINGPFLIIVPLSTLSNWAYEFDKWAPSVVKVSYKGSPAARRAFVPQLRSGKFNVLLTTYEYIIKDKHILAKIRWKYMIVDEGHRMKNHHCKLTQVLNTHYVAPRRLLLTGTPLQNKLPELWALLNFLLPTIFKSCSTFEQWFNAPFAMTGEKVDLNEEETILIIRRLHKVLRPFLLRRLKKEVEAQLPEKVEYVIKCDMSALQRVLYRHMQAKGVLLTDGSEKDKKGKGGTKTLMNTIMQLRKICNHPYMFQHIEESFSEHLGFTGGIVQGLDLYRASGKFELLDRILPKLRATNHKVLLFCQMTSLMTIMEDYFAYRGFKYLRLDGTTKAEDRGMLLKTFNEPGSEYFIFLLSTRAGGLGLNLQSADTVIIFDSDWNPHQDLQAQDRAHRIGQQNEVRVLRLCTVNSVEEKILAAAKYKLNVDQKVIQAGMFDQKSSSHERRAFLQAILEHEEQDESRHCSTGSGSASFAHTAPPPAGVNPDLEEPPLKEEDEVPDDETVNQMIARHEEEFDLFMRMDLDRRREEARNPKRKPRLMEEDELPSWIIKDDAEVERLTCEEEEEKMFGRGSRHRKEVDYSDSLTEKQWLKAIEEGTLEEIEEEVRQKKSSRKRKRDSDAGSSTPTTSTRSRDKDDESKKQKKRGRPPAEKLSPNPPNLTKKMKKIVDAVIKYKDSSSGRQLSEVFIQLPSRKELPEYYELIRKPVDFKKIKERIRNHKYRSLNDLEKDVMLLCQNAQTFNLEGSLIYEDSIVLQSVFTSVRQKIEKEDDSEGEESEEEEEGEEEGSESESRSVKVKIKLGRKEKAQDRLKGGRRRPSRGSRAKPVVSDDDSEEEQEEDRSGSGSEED
T2 sequence (P51531 whole entry): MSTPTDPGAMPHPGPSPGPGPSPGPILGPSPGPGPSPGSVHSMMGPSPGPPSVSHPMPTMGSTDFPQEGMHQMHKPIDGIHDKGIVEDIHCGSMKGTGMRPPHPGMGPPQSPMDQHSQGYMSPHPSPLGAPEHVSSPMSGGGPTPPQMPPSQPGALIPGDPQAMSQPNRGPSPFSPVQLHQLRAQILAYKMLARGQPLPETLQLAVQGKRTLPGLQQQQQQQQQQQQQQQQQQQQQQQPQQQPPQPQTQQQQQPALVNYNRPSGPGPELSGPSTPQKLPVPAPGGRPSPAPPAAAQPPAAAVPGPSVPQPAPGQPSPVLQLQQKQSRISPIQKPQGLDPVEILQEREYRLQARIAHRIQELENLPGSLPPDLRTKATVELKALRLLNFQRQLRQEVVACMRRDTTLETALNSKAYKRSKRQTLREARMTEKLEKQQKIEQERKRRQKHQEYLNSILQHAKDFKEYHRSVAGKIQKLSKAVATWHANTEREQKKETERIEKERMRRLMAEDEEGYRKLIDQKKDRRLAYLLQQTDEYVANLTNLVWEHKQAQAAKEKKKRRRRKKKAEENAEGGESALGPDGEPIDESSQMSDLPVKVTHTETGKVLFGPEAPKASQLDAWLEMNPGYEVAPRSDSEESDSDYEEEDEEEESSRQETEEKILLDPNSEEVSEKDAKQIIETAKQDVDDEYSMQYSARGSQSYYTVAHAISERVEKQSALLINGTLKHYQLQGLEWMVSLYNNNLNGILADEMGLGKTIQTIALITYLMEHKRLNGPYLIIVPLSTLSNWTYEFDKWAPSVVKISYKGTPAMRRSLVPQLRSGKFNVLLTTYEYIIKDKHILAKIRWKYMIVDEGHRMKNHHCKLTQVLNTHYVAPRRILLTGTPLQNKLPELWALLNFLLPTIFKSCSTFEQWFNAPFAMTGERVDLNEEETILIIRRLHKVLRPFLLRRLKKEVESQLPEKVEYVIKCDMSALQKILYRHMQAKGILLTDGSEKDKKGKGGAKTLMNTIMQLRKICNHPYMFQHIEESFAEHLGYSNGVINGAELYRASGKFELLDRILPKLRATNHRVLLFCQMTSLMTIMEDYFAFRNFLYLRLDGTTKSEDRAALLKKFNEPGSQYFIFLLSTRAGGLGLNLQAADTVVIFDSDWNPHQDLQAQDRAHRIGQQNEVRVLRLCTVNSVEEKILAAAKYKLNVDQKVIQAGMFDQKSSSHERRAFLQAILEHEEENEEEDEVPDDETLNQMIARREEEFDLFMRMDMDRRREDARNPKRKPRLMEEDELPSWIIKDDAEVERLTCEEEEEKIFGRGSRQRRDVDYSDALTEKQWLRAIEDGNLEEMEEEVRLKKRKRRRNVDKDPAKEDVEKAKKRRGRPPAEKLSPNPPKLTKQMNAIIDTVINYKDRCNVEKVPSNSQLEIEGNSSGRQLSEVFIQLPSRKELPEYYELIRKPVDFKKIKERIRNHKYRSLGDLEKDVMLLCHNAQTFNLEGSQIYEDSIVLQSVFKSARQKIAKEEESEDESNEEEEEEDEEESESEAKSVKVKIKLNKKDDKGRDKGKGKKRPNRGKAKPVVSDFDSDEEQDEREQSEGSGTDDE

For `Cc1ncsc1-c1ccc([C@H](C)NC(=O)[C@@H]2C[C@@H](O)CN2C(=O)[C@@H](c2cc(OCCN3C[C@@H]4CN(C(=O)c5ccc(CCOc6cc(-c7ccccc7O)nnc6N)cc5)C[C@@H]4C3)no2)C(C)C)cc1` [Compound 190, (2S,4R)-1-((2R)-2-(3-(2-(5-(4-(2-((3-amino-6-(2-hydroxyphenyl)pyridazin-4-yl)oxy)ethyl)benzoyl)hexahydropyrrolo[3,4-c]pyrrol-2(1H)-yl)ethoxy)isoxazol-5-yl)-3-methylbutanoyl)-4-hydroxy-N-((S)-1-(4-(4-methylthiazol-5-yl)phenyl)ethyl)pyrrolidine-2-carboxamide], the DC50 (HiBit-BRG1) was over 100 nM, the Dmax (HiBit-BRG1) was over 75% and the “BRM HiBit Degradation Maximum (%)” value (HiBiT-BRM) was “A (“A” indicates maximum degradation ≥75%)”. For the same molecule, the DC50 (HiBiT-BRM) was over 10 nM.
In the case of `Cc1ncsc1-c1ccc([C@H](C)NC(=O)[C@@H]2C[C@@H](O)CN2C(=O)[C@@H](c2cc(OCCN3CC4(C3)CN(CC(=O)NCc3ccc(CCOc5cc(-c6ccccc6O)nnc5N)cc3)C4)no2)C(C)C)cc1` [Compound 191, (2S,4R)-1-[(2R)-2-[3-(2-[6-[([[4-(2-[[3-amino-6-(2-hydroxyphenyl)pyridazin-4-yl]oxy]ethyl)phenyl]methyl]carbamoyl)methyl]-2,6-diazaspiro[3.3]heptan-2-yl]ethoxy)-1,2-oxazol-5-yl]-3-methylbutanoyl]-4-hydroxy-N-[(1S)-1-[4-(4-methyl-1,3-thiazol-5-yl)phenyl]ethyl]pyrrolidine-2-carboxamide], the DC50 (HiBit-BRG1) is reported as over 1000 nM, the Dmax (HiBit-BRG1) is reported as over 75% and the “BRM HiBit Degradation Maximum (%)” value (HiBiT-BRM) is reported as “A (“A” indicates maximum degradation ≥75%)”. For the same molecule, the DC50 (HiBiT-BRM) was over 100 nM.
In the case of `Cc1ncsc1-c1ccc([C@H](C)NC(=O)[C@@H]2C[C@@H](O)CN2C(=O)[C@@H](c2cc(OCCN3CC4(C3)CN(CCC(=O)NCc3ccc(CCOc5cc(-c6ccccc6O)nnc5N)cc3)C4)no2)C(C)C)cc1` [Compound 192, (2S,4R)-1-[(2R)-2-[3-(2-[6-[2-([[4-(2-[[3-amino-6-(2-hydroxyphenyl)pyridazin-4-yl]oxy]ethyl)phenyl]methyl]carbamoyl)ethyl]-2,6-diazaspiro[3.3]heptan-2-yl]ethoxy)-1,2-oxazol-5-yl]-3-methylbutanoyl]-4-hydroxy-N-[(1S)-1-[4-(4-methyl-1,3-thiazol-5-yl)phenyl]ethyl]pyrrolidine-2-carboxamide], the DC50 (HiBit-BRG1) is reported as over 1000 nM, the Dmax (HiBit-BRG1) is reported as over 50% and the “BRM HiBit Degradation Maximum (%)” value (HiBiT-BRM) is reported as “A (“A” indicates maximum degradation ≥75%)”. The DC50 (HiBiT-BRM) was over 100 nM.
With `Cc1ncsc1-c1ccc([C@H](C)NC(=O)[C@@H]2C[C@@H](O)CN2C(=O)[C@@H](c2cc(OCCN3CC(CC(=O)NCc4ccc(CCOc5cc(-c6ccccc6O)nnc5N)cc4)C3)no2)C(C)C)cc1` [Compound 193, (2S,4R)-1-[2-[3-(2-[3-[([[4-(2-[[3-amino-6-(2-hydroxyphenyl)pyridazin-4-yl]oxy]ethyl)phenyl]methyl]carbamoyl)methyl]azetidin-1-yl]ethoxy)-1,2-oxazol-5-yl]-3-methylbutanoyl]-4-hydroxy-N-[(1S)-1-[4-(4-methyl-1,3-thiazol-5-yl)phenyl]ethyl]pyrrolidine-2-carboxamide] the DC50 (HiBit-BRG1) was over 1000 nM, the Dmax (HiBit-BRG1) was under 50% and the “BRM HiBit Degradation Maximum (%)” value (HiBiT-BRM) was “B (“B” indicates maximum degradation ≥50%)”. For the same molecule, the DC50 (HiBiT-BRM) was over 100 nM.
With `Cc1ncsc1-c1ccc([C@H](C)NC(=O)[C@@H]2C[C@@H](O)CN2C(=O)[C@@H](c2cc(OCCN3C[C@@H]4[C@H](C3)[C@H]4C(=O)NCc3ccc(CCOc4cc(-c5ccccc5O)nnc4N)cc3)no2)C(C)C)cc1` [Compound 194] the DC50 (HiBit-BRG1) was over 100 nM, the Dmax (HiBit-BRG1) was over 75% and the “BRM HiBit Degradation Maximum (%)” value (HiBiT-BRM) was “A (“A” indicates maximum degradation ≥75%)”. The DC50 (HiBiT-BRM) was over 10 nM.

— patent publication US20230150974A1 (Foghorn Therapeutics Inc., priority 2020, published 2023)
